Tested on: lung gene expression
Assay: RNA sequencing of lung tissue (BLM/EL244 vs BLM)
Type: in vivo, mouse
Experimental: RNA quality was assessed using an Agilent TapeStation 4150 with the High Sensitivity […] ScreenTape (Agilent), according to the manufacturer’s protocols. For library preparation, the QuantSeq 3’mRNA-Seq Library Prep Kit (Lexogen) was used according to manufacturer’s instructions. Briefly, 500 ng of RNA from each sample was used for first-strand synthesis, followed by RNA template removal, and second-strand synthesis initiated by random primers. In-line barcodes were introduced at this step, and this was followed by magnetic bead-based purification. The resulting libraries were amplified for 15 cycles and re-purified, with quantity and quality assessed on a Qubit 4 Fluorometer with the Invitrogen Qubit dsDNA HS Assay and an Agilent Tapestation 4150 with the High Sensitivity D1000 assay kit, respectively. The quantified libraries were pooled equimolarly; 50ng of total library mix was used for Adapter Conversion PCR Amplification using the Universal Library Conversion Kit (App-A), Version: V1.0 (MGI Tech Co., Ltd.), according to the manufacturer’s instructions.
The quantity and quality of the purified adapter conversion PCR (AC-PCR) product were evaluated on a Qubit 4 Fluorometer with the Invitrogen Qubit dsDNA HS Assay and on an Agilent Tapestation 4150 with the High Sensitivity D1000 assay kit, respectively. This was followed by DNA denaturation, Single-Strand Circularisation, Enzymatic Digestion, Enzymatic Digestion Product Cleanup and Quality Control steps on 1 pmol of AC-PCR product, according to the Universal Library Conversion Kit (App-A) User Manual (Version: A3).
Finally, 60 fmol of ssCirDNA were used for DNB preparation and sequencing on a DNBSEQ-G400 platform at the BSRC Alexander Fleming Genomics Facility, using a G400 App-A FCS SE100 High-throughput Sequencing Set (MGI Tech Co., Ltd.), according to the manufacturer’s instructions.
Alignment of the FASTQ files was performed against the mouse genome build mm10 using a custom Bash script.[143] Read counting on the 3′ UTRs and differential expression analysis were conducted using the metaseqR2 bioconductor package.[144] Genes corresponding to the following biotypes were excluded: polymorphic_pseudogene, processed_transcript, pseudogene, IG_V_pseudogene, misc_RNA, IG_C_gene, IG_J_gene, IG_D_gene, IG_LV_gene, TR_V_gene, TR_V_pseudogene, TEC, and processed_pseudogene. Gene counts were normalized with DESEQ[145] through metaseqR2. Genes with more than 10 counts in at least 50% of the samples were kept for further processing. For differential expression analysis, the PANDORA algorithm[146] was used to estimate a meta p-value integrating the results from the DESEQ, DESEQ2,[147] edgeR,[148] limma,[149] NBPSeq,[150] and NOISeq[151] algorithms. All additional parameters were set to default values.
Pathway enrichment analysis was performed for the Gene Ontology Biological process (BP) and Molecular Function (MF) terms through GeneCodis 4.[152] The volcano plots, scatterplots, Venn diagrams, and dot plots were generated using the ggplot2 Bioconductor package.

O=C1NC(=O)C(Cc2ccc(OCCC3CCN(C(=O)OCc4cc(Cl)cc(Cl)c4)CC3)cc2)S1 (stereo not drawn) [EL244, 3,5-dichlorobenzyl 4-(2-(4-((2,4-dioxothiazolidin-5-yl)methyl)phenoxy)ethyl)piperidine-1-carboxylate]
Rbm24 nFC (BLM/EL244 vs BLM, lung tissue): 2.29
Rdh12 log2 nFC (BLM/EL244 vs BLM, lung tissue): 1.74
Rdh12 nFC (BLM/EL244 vs BLM, lung tissue): 3.34
Retnlg log2 nFC (BLM/EL244 vs BLM, lung tissue): 1.46
Retnlg nFC (BLM/EL244 vs BLM, lung tissue): 2.74
Ryr2 log2 nFC (BLM/EL244 vs BLM, lung tissue): 2.14
Ryr2 nFC (BLM/EL244 vs BLM, lung tissue): 4.39
S1pr5 log2 nFC (BLM/EL244 vs BLM, lung tissue): 1.64
S1pr5 nFC (BLM/EL244 vs BLM, lung tissue): 3.12
S100a8 log2 nFC (BLM/EL244 vs BLM, lung tissue): 1.52
S100a8 nFC (BLM/EL244 vs BLM, lung tissue): 2.86
S100a9 log2 nFC (BLM/EL244 vs BLM, lung tissue): 2.11
S100a9 nFC (BLM/EL244 vs BLM, lung tissue): 4.32
Scel log2 nFC (BLM/EL244 vs BLM, lung tissue): 1.31
Scel nFC (BLM/EL244 vs BLM, lung tissue): 2.47
Shank3 log2 nFC (BLM/EL244 vs BLM, lung tissue): 1.61
Shank3 nFC (BLM/EL244 vs BLM, lung tissue): 3.05
Slc38a4 log2 nFC (BLM/EL244 vs BLM, lung tissue): 1.12
Slc38a4 nFC (BLM/EL244 vs BLM, lung tissue): 2.17
Sln log2 nFC (BLM/EL244 vs BLM, lung tissue): 2.01
Sln nFC (BLM/EL244 vs BLM, lung tissue): 4.02
Smad6 log2 nFC (BLM/EL244 vs BLM, lung tissue): 1.18
Smad6 nFC (BLM/EL244 vs BLM, lung tissue): 2.26
Smpx log2 nFC (BLM/EL244 vs BLM, lung tissue): 2.34
Smpx nFC (BLM/EL244 vs BLM, lung tissue): 5.08
Smyd1 log2 nFC (BLM/EL244 vs BLM, lung tissue): 1.73
Smyd1 nFC (BLM/EL244 vs BLM, lung tissue): 3.32
Snhg11 log2 nFC (BLM/EL244 vs BLM, lung tissue): 1.40
Snhg11 nFC (BLM/EL244 vs BLM, lung tissue): 2.64
Snx21 log2 nFC (BLM/EL244 vs BLM, lung tissue): 1.15
Snx21 nFC (BLM/EL244 vs BLM, lung tissue): 2.21
Sox18 log2 nFC (BLM/EL244 vs BLM, lung tissue): 1.91
Sox18 nFC (BLM/EL244 vs BLM, lung tissue): 3.76
Spink5 log2 nFC (BLM/EL244 vs BLM, lung tissue): 1.36
Spink5 nFC (BLM/EL244 vs BLM, lung tissue): 2.57
Tbata log2 nFC (BLM/EL244 vs BLM, lung tissue): 1.72
Tbata nFC (BLM/EL244 vs BLM, lung tissue): 3.30
Tcap log2 nFC (BLM/EL244 vs BLM, lung tissue): 1.73
Tcap nFC (BLM/EL244 vs BLM, lung tissue): 3.32
Tex11 log2 nFC (BLM/EL244 vs BLM, lung tissue): 1.83
Tex11 nFC (BLM/EL244 vs BLM, lung tissue): 3.55
Tmem182 log2 nFC (BLM/EL244 vs BLM, lung tissue): 2.26
Tmem182 nFC (BLM/EL244 vs BLM, lung tissue): 4.78
Tmem132d log2 nFC (BLM/EL244 vs BLM, lung tissue): 2.38
Tmem132d nFC (BLM/EL244 vs BLM, lung tissue): 5.19
Tnnc1 log2 nFC (BLM/EL244 vs BLM, lung tissue): 2.18
Tnnc1 nFC (BLM/EL244 vs BLM, lung tissue): 4.53
Tnni3 log2 nFC (BLM/EL244 vs BLM, lung tissue): 2.31
Tnni3 nFC (BLM/EL244 vs BLM, lung tissue): 4.95
Tnnt2 log2 nFC (BLM/EL244 vs BLM, lung tissue): 1.77
Tnnt2 nFC (BLM/EL244 vs BLM, lung tissue): 3.42
Ttn log2 nFC (BLM/EL244 vs BLM, lung tissue): 2.53
Ttn nFC (BLM/EL244 vs BLM, lung tissue): 5.78
Upk3b log2 nFC (BLM/EL244 vs BLM, lung tissue): 1.53
Upk3b nFC (BLM/EL244 vs BLM, lung tissue): 2.88
Xndc1 log2 nFC (BLM/EL244 vs BLM, lung tissue): 1.14
Xndc1 nFC (BLM/EL244 vs BLM, lung tissue): 2.21
Zbtb16 log2 nFC (BLM/EL244 vs BLM, lung tissue): 1.33
Zbtb16 nFC (BLM/EL244 vs BLM, lung tissue): 2.51
Zmynd10 log2 nFC (BLM/EL244 vs BLM, lung tissue): 1.28
Zmynd10 nFC (BLM/EL244 vs BLM, lung tissue): 2.44
1810010H24Rik log2 nFC BLM/EL244 vs BLM (DEG 1810010H24Rik, nFC: normalised fold change): 0.90
1810020O05Rik log2 nFC BLM/EL244 vs BLM (DEG 1810020O05Rik, nFC: normalised fold change): 1.58
2410004I01Rik log2 nFC BLM/EL244 vs BLM (DEG 2410004I01Rik, nFC: normalised fold change): 1.80
9330159F19Rik log2 nFC BLM/EL244 vs BLM (DEG 9330159F19Rik, nFC: normalised fold change): 1.78
9530026P05Rik log2 nFC BLM/EL244 vs BLM (DEG 9530026P05Rik, nFC: normalised fold change): 3.17
A3galt2 log2 nFC BLM/EL244 vs BLM (DEG A3galt2, nFC: normalised fold change): 2.32
log2 nFC BLM/EL244 vs BLM (DEG AA467197): -1.39
Abca8a log2 nFC BLM/EL244 vs BLM (DEG Abca8a, nFC: normalised fold change): 0.75
Abi3bp log2 nFC BLM/EL244 vs BLM (DEG Abi3bp, nFC: normalised fold change): 1.00
Acaa1b log2 nFC BLM/EL244 vs BLM (DEG Acaa1b, nFC: normalised fold change): 1.43
Acbd4 log2 nFC BLM/EL244 vs BLM (DEG Acbd4, nFC: normalised fold change): 0.86
Acot1 log2 nFC BLM/EL244 vs BLM (DEG Acot1, nFC: normalised fold change): 1.08
Acoxl log2 nFC BLM/EL244 vs BLM (DEG Acoxl, nFC: normalised fold change): 1.23
Actc1 log2 nFC BLM/EL244 vs BLM (DEG Actc1, nFC: normalised fold change): 1.28
Adam3 log2 nFC BLM/EL244 vs BLM (DEG Adam3, nFC: normalised fold change): 1.67
log2 nFC BLM/EL244 vs BLM (DEG Adam12): -1.57
log2 nFC BLM/EL244 vs BLM (DEG Adamts12): -1.47
Adh7 log2 nFC BLM/EL244 vs BLM (DEG Adh7, nFC: normalised fold change): 1.02
Alas2 log2 nFC BLM/EL244 vs BLM (DEG Alas2, nFC: normalised fold change): 1.58
Aldh1a1 log2 nFC BLM/EL244 vs BLM (DEG Aldh1a1, nFC: normalised fold change): 0.78
log2 nFC BLM/EL244 vs BLM (DEG Ankrd37): -1.50
Ankrd44 log2 nFC BLM/EL244 vs BLM (DEG Ankrd44, nFC: normalised fold change): 0.84
Ankrd63 log2 nFC BLM/EL244 vs BLM (DEG Ankrd63, nFC: normalised fold change): 1.34
Aox3 log2 nFC BLM/EL244 vs BLM (DEG Aox3, nFC: normalised fold change): 1.07
Aqp9 log2 nFC BLM/EL244 vs BLM (DEG Aqp9, nFC: normalised fold change): 1.66
Ar log2 nFC BLM/EL244 vs BLM (DEG Ar, nFC: normalised fold change): 1.04
Arhgap28 log2 nFC BLM/EL244 vs BLM (DEG Arhgap28, nFC: normalised fold change): 1.14
Arhgef38 log2 nFC BLM/EL244 vs BLM (DEG Arhgef38, nFC: normalised fold change): 0.87
Arl4a log2 nFC BLM/EL244 vs BLM (DEG Arl4a, nFC: normalised fold change): 0.70
log2 nFC BLM/EL244 vs BLM (DEG Armcx4): -1.32
Arrdc2 log2 nFC BLM/EL244 vs BLM (DEG Arrdc2, nFC: normalised fold change): 1.24
Asgr1 log2 nFC BLM/EL244 vs BLM (DEG Asgr1, nFC: normalised fold change): 1.80
Atp2a3 log2 nFC BLM/EL244 vs BLM (DEG Atp2a3, nFC: normalised fold change): 0.83
Atp6v1c2 log2 nFC BLM/EL244 vs BLM (DEG Atp6v1c2, nFC: normalised fold change): 1.03
Baiap3 log2 nFC BLM/EL244 vs BLM (DEG Baiap3, nFC: normalised fold change): 1.24
Bbof1 log2 nFC BLM/EL244 vs BLM (DEG Bbof1, nFC: normalised fold change): 1.11
log2 nFC BLM/EL244 vs BLM (DEG Bcl2a1d): -1.29
Bex2 log2 nFC BLM/EL244 vs BLM (DEG Bex2, nFC: normalised fold change): 1.46
Bmp6 log2 nFC BLM/EL244 vs BLM (DEG Bmp6, nFC: normalised fold change): 1.07
Bpifa1 log2 nFC BLM/EL244 vs BLM (DEG Bpifa1, nFC: normalised fold change): 1.12
log2 nFC BLM/EL244 vs BLM (DEG C1qa): -1.44
log2 nFC BLM/EL244 vs BLM (DEG C1qb): -1.51
log2 nFC BLM/EL244 vs BLM (DEG C1qc): -1.56
log2 nFC BLM/EL244 vs BLM (DEG C1qtnf6): -1.38
log2 nFC BLM/EL244 vs BLM (DEG C3ar1): -1.58
C130080G10Rik log2 nFC BLM/EL244 vs BLM (DEG C130080G10Rik, nFC: normalised fold change): 3.58
Car3 log2 nFC BLM/EL244 vs BLM (DEG Car3, nFC: normalised fold change): 1.57
Casq2 log2 nFC BLM/EL244 vs BLM (DEG Casq2, nFC: normalised fold change): 2.36
Cbr2 log2 nFC BLM/EL244 vs BLM (DEG Cbr2, nFC: normalised fold change): 0.91
Ccdc153 log2 nFC BLM/EL244 vs BLM (DEG Ccdc153, nFC: normalised fold change): 0.79
Ccdc171 log2 nFC BLM/EL244 vs BLM (DEG Ccdc171, nFC: normalised fold change): 1.04
log2 nFC BLM/EL244 vs BLM (DEG Ccl2): -1.43
log2 nFC BLM/EL244 vs BLM (DEG Ccl8): -1.54

From paper PMC13198257, “An aerosolized dual-action autotaxin inhibitor-PPARγ agonist for the treatment of pulmonary fibrosis” (Cell Reports Medicine, 2026)
